Data published in patent US8450342B2, “Perharidines as CDK inhibitors” (Centre Nationale de la Recherche Scientifique, priority 2008, dated 2013).
pIC50: −log10 of the molar value. “And” between values parts separate entries of the source, which are not always exact repeats. Identical values can stand only once. Like-named read-outs stand apart in the source and are kept apart here. Values belong to the compound of their own block, whether it stands above or below them.

Tests used:
[1] = target: CDK1/cyclin B; test: CDK1/cyclin B kinase assay; assay type: biochemical, starfish
Procedure: (§1) Controls were performed with appropriate dilutions of dimethylsulfoxide.
(§2) ATP (3,000 Ci/mmol; 10 mCi/ml) in a final volume of 30 μl. After 30 min. incubation at 30° C., 25 μl aliquots of supernatant were spotted onto 2.5×3 cm pieces of Whatman P81 phosphocellulose paper, and, 20 sec. later, the filters were washed five times (for at least 5 min. each time) in a solution of 10 ml phosphoric acid/liter of water. The wet filters were counted in the presence of 1 ml ACS (Amersham) scintillation fluid.

[2] = target: T1, CDK5/p25 (Homo sapiens, UniProt Q00535); test: CDK5/p25 kinase assay; assay type: biochemical
T1 construct: made in house
Procedure: as §1, §2

[3] = target: T2, CDK9/cyclin T (Homo sapiens, UniProt P50750); test: CDK9/cyclin T kinase assay; assay type: biochemical
T2 construct: made in house; host or cells: insect cells
Procedure: (§3) Blank values were subtracted and activities expressed in % of the maximal activity, i.e. in the absence of inhibitors. Controls were performed with appropriate dilutions of dimethylsulfoxide.

[4] = target: CK1δ/ε; test: CK1 kinase assay; assay type: biochemical, porcine
Procedure: as §3

[5] = target: GSK-3α/β; test: GSK-3α/β kinase assay; assay type: biochemical, porcine
Procedure: as §3

[6] = tested on: SH-SY5Y human neuroblastoma cells; test: Cell survival (MTS assay), SH-SY5Y; assay type: cell-based
Procedure: (§4) SH-SY5Y human neuroblastoma cells were grown in DMEM medium (Invitrogen, Cergy Pontoise, France). […] Human foreskin primary fibroblasts (kindly provided by Dr. Gilles Ponzio) were grown in DMEM supplemented with 2 mM L-glutamine and 20 mM HEPES. All the media were supplemented with antibiotics (penicillin-streptomycin) from Lonza and 10% volume of FCS from Invitrogen. Cells were cultured at 37° C. with 5% CO2. Drug treatments were performed on exponentially growing cultures at the indicated time and concentrations. Control experiments were carried out using appropriate dilutions of DMSO. MDCK cell-lines were used to test compounds PKD.

[7] = target: T3, Erk2 (Sus scrofa, UniProt A0A8W4FG96); test: Competition on agarose beads with porcine brain lysate (silver staining assay), Erk2; assay type: binding; details: FIG. 1, 500 μM or 100 μM
T3 construct: 1000 μg of porcine brain lysate; from tissue; host or cells: porcine brain lysate

[8] = target: T4, pyridoxal kinase (PDXK) (Sus scrofa, UniProt O46560); test: Competition on agarose beads with porcine brain lysate (silver staining assay), pyridoxal kinase; assay type: binding; details: FIG. 1, 500 μM or 100 μM
T4 construct: 1000 μg of porcine brain lysate; from tissue; host or cells: porcine brain lysate
Source text: Indeed, the interaction of the compounds of the invention with pyridoxal kinase has been determined by the following method: (silver staining assay)

[9] = tested on: RNA polymerase II Ser2 phosphorylation; test: Western blot, RNA polymerase II Ser2 phosphorylation in SH-SY5Y; assay type: cell-based, human; details: FIG. 10
Procedure: SH-SY5Y human neuroblastoma cells were grown in DMEM medium (Invitrogen, Cergy Pontoise, France). The HEK 293 human embryonic kidney cell line was grown in MEM medium from Invitrogen. Human foreskin primary fibroblasts (kindly provided by Dr. Gilles Ponzio) were grown in DMEM supplemented with 2 mM L-glutamine and 20 mM HEPES. All the media were supplemented with antibiotics (penicillin-streptomycin) from Lonza and 10% volume of FCS from Invitrogen. Cells were cultured at 37° C. with 5% CO2. Drug treatments were performed on exponentially growing cultures at the indicated time and concentrations. Control experiments were carried out using appropriate dilutions of DMSO. MDCK cell-lines were used to test compounds PKD.
Cells were resuspended and lysed for 30 minutes at 4° C. in Homogenization Buffer [60 mM β-glycerophosphate, 15 mM p-nitrophenyl phosphate, 25 mM MOPS (pH 7.2), 15 mM EGTA, 15 mM MgCl2, 1 mM dithiothreitol, 1 mM sodium vanadate, 1 mM NaF, 1 mM phenylphosphate, 0.1% Nonidet P-40 and protease inhibitor cocktail] and sonicated. After centrifugation (14000 rpm for 15 minutes at 4° C.), the protein concentration was determined in the supernatants by the Bradford protein assay (Bio-Rad).
Whole cell extracts were prepared in buffer containing 100 mM Tris/HCl (pH, 6.8), 1 mM EDTA, 2% SDS and protease inhibitor cocktail. Following heat denaturation for 5 minutes, proteins were separated on 10% or 7% NuPAGE pre-cast Bis-Tris or Tris-Acetate polyacrylamide mini gels (Invitrogen) with MOPS SDS (all but cytochrome C, RNA polymerase II and phospho-Ser2—RNA polymerase II Western blots), MES SDS (cytochrome C), or Tris-Acetate SDS (RNA polymerase II and phospho-Ser2—RNA polymerase II) running buffer depending on protein size. Proteins were transferred to 0.45 μm nitrocellulose filters (Schleicher and Schuell). These were blocked with 5% low fat milk in Tris-Buffered Saline—Tween-20, incubated for 1 h with antibodies (anti-actin: 1:2000) or overnight at 4° C. (cytochome C: 1:500), Rb (1:500), phosphor-Rb (1:500), phospho-Thr320-PP1α (1:1000), RNA polymerase II (1:500), phosphor-Ser2-RNA polymerase II (1:500), Mcl-1 (1:500), caspase-9 (1:1000) and analyzed by Enhanced Chemiluminescence (ECL, Amersham).

[10] = target: T5, CDK2/cyclin A (Homo sapiens, UniProt P24941); test: CDK2/cyclin A kinase assay; assay type: biochemical
T5 construct: made in house; host or cells: insect cells
Procedure: as §3
CDK2/cyclin A (human, recombinant, expressed in insect cells) was assayed as described for CDK1/cyclin B.

[11] = target: CDK2/cyclin E (Homo sapiens, UniProt P24941); test: CDK2/cyclin E kinase assay; assay type: biochemical; details: Table 5
Procedure: as §1
(§5) The compounds were tested at various concentrations in the kinase assays, as described in the Methods section.

[12] = target: DYRK1A (Homo sapiens, UniProt Q13627); test: DYRK1A kinase assay; assay type: biochemical
Procedure: as §3, §5

[13] = target: Erk2 (Homo sapiens, UniProt P28482); test: Erk2 kinase assay; assay type: biochemical; details: Table 5
Procedure: as §3, §5

[14] = tested on: LS 174T (Oncodesign); test: Cell survival, LS 174T (Oncodesign); assay type: cell-based; details: Homo sapiens, LS174T; Table 6
[15] = tested on: HCT116 (Oncodesign); test: Cell survival, HCT116 (Oncodesign); assay type: cell-based; details: Homo sapiens, HCT-116; Table 6
[16] = tested on: B2-CLL lymphocytes; test: Survival / cell death of B2-CLL lymphocytes from patients; assay type: cell-based, human; details: Homo sapiens, Lymphocyte
Procedure: Cell viability was determined by measuring the reduction of 3-(4,5-dimethylthiazol-2-yl)-5-(3-carboxymethoxyphenyl)-2-(4-sulfophenyl)-2/H-tetrazolium (MTS). Cell death was determined by measuring the level of lactate dehydrogenase activity (LDH) released upon cell lysis.

[17] = tested on: HEK 293 human embryonic kidney cell line; test: Cell survival (MTS assay), HEK293; assay type: cell-based; details: HEK293, Table 4, MTS assay
Procedure: as §4

[18] = read-out: Inhibition of CDK1/cyclin B, IC50
[19] = read-out: Inhibition of CDK5/p25, IC50
[20] = read-out: Inhibition of CK1, IC50
[21] = read-out: Inhibition of GSK3beta, IC50
[22] = read-out: Inhibition of the tumor cell-line SHSY-5Y, IC50
[23] = Table 4, MTS assay, read-out: SH-SY5Y cell survival
[24] = read-out: Inhibition of DYRK1A, IC50

T1 sequence (Q00535 whole entry): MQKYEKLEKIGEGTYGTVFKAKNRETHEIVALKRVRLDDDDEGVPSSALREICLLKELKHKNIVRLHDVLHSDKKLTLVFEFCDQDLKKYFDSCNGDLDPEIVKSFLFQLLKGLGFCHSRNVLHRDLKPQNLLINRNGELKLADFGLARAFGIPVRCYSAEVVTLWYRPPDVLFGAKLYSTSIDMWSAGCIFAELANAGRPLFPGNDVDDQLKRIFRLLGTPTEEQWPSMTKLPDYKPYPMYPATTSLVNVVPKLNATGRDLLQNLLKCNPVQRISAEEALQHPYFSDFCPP
T1 sequence (Q15078 99-307 partner limits assumed): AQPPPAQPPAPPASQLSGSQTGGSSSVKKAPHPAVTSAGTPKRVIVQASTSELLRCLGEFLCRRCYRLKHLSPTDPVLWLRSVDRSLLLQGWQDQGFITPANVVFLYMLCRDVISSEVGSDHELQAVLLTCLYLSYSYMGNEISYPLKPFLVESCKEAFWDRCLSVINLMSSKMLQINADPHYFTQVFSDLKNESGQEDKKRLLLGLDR
T2 sequence (P50750 whole entry): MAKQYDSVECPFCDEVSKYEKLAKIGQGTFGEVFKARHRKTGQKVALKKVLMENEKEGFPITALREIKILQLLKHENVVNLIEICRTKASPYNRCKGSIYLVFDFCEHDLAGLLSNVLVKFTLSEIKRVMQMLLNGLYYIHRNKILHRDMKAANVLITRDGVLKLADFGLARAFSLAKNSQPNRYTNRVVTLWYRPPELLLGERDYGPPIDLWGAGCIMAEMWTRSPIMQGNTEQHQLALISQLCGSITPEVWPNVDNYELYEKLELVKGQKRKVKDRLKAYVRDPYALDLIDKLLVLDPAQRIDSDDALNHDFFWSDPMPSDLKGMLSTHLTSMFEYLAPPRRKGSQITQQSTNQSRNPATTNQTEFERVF
T2 sequence (O60563 whole entry partner): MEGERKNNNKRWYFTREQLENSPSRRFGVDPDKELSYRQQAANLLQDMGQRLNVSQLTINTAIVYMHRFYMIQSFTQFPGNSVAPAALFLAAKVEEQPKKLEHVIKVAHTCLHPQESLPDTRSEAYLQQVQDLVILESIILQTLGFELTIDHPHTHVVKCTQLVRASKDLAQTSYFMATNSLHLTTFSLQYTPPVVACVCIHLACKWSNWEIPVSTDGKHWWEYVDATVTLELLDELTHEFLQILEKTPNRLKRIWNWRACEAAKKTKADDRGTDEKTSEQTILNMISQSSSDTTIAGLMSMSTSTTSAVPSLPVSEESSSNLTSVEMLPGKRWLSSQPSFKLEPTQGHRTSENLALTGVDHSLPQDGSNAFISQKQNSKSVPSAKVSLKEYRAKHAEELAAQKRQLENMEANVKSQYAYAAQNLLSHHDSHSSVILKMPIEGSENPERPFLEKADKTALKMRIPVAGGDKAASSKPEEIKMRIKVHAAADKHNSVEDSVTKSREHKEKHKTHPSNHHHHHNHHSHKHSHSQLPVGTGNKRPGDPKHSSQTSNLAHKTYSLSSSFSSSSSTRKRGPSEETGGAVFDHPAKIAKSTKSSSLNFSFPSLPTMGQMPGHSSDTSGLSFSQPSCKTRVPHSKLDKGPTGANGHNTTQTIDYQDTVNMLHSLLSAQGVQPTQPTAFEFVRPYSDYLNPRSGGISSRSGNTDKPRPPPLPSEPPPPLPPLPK
T3 sequence (A0A8W4FG96 1-358): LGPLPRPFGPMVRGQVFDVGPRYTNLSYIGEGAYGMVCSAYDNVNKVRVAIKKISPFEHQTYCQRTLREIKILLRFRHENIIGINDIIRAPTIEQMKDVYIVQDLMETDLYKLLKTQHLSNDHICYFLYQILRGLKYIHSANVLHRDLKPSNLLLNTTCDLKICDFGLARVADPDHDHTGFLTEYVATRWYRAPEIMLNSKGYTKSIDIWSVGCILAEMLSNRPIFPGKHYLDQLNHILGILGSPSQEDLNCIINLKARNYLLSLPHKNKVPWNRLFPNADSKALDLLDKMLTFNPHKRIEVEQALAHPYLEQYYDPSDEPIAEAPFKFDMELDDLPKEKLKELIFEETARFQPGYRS
Erk2 (Homo sapiens, UniProt P28482), sequence (P28482 whole entry, species assumed): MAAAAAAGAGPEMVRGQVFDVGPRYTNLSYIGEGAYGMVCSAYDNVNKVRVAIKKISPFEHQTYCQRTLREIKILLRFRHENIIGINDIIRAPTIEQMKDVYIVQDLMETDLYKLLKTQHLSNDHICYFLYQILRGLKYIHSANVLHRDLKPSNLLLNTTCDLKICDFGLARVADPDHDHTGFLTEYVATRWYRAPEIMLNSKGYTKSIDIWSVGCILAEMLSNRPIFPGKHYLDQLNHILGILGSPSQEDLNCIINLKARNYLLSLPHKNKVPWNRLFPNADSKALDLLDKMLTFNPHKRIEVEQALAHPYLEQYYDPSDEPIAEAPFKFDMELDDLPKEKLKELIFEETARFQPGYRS
T4 sequence (O46560 whole entry): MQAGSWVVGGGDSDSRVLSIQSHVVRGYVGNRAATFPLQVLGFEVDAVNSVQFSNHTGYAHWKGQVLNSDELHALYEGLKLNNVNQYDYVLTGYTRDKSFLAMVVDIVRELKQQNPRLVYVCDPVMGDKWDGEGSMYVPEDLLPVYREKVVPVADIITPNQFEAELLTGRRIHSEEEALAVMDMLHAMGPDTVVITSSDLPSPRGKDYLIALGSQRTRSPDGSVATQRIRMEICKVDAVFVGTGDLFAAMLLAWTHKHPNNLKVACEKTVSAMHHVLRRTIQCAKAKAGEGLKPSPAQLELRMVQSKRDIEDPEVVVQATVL

pIC50 [1, 18]: 6.82
pIC50 [2, 19]: 6.74
pIC50 ([3]; read-out: Inhibition of CDK9/cyclin T, IC50): 6.85
pIC50 [4, 20]: 6.28
pIC50 [5, 21]: 4.89
Structure (SMILES): CC(C)n1cnc2c(NCc3ccc(-c4ccccn4)cc3)cc(NC(CO)[C@@H](C)O)nc21 (stereo in doubt) [Ij, (R,R)-2-[[3-isopropyl-7-[[4-(2-pyridyl)phenyl]methylamino]imidazo[4,5-b]pyridin-5-yl]amino]butane-1,3-diol]
pIC50 [6, 22]: 6.82

Structure (SMILES): CC[C@H](CO)Nc1nc(NCc2ccccc2)c2ncn(C(C)C)c2n1 [(R)-Roscovitine, Roscovitine]
competitor effect for Erk2 [7]: exhibited a competitor effect
competitor effect for pyridoxal kinase (PDXK) [8]: exhibited a competitor effect
total RNA pol II [9]: essentially constant

pIC50 ([1]; Table 5, read-out: CDK1/cyclin B): 6.57
pIC50 ([10]; Table 5, read-out: CDK2/cyclin A): 6.82
pIC50 [11]: 7.00
pIC50 ([2]; Table 5, read-out: CDK5/p25): 6.70
pIC50 ([3]; Table 5, read-out: CDK9/cyclin T): 6.92
pIC50 ([4]; Table 5, read-out: CK1): 5.72
pIC50 ([12]; Table 5, read-out: DYRK1A): 5.55
pIC50 [13]: 5.05
pIC50 ([5]; Table 5, read-out: GSK-3α/β): 4.61
Structure (SMILES): CC[C@@H](CO)Nc1cc(NCc2ccc(-c3ccccn3)cc2)c2ncn(C(C)C)c2n1 [(S)-perharidine D, (S)-7-[4-(2-Pyridyl)-benzylaminol]-5-[(2-butyl-1ol)amino]-3-iso-propylimidazo[4,5-b]pyridine]
pIC50 ([6]; Table 6, MTS assay, read-out: SH-SY5Y cell survival): 6.18
pIC50 [14]: 7.00
pIC50 [15]: 6.52
pIC50 ([16]; LLC B-cells, read-out: Cell death induction): 6.89
pIC50 ([16]; Table 6, read-out: Chronic Lymphocytic Leukemia cell survival): 6.89

pIC50 ([1]; Table 4, read-out: CDK1): 6.00
pIC50 ([2]; Table 4, read-out: CDK5): 6.10
pIC50 ([4]; Table 4, read-out: CK1): 6.00
pIC50 ([5]; Table 4, read-out: GSK3): < 5.00
Structure (SMILES): CC(C)n1cnc2c(NCc3ccccc3)cc([N+](=O)[O-])nc21 [Formula Ie]
pIC50 [6, 23]: 4.13
pIC50 [17]: 4.34

pIC50 ([1]; Table 4, read-out: CDK1): 5.40
pIC50 ([2]; Table 4, read-out: CDK5): 5.42
pIC50 ([4]; Table 4, read-out: CK1): 5.10
pIC50 ([5]; Table 4, read-out: GSK3): < 5.00
Structure (SMILES): CC(C)n1cnc2c(NCc3ccccc3)cc(N)nc21 [Formula If]
pIC50 [6, 23]: < 4.00
pIC50 [17]: < 4.00

pIC50 ([1]; Table 4, read-out: CDK1): 6.28
pIC50 ([2]; Table 4, read-out: CDK5): 6.20
pIC50 ([4]; Table 4, read-out: CK1): 5.52
pIC50 ([5]; Table 4, read-out: GSK3): < 5.00
Structure (SMILES): CC(C)n1cnc2c(NCc3ccccc3)cc(NC(=O)C(F)(F)F)nc21 [Formula Ig]
pIC50 [6, 23]: < 4.00
pIC50 [17]: < 4.00

pIC50 [1, 18]: 6.70
pIC50 ([10]; unit inferred, read-out: Inhibition of CDK2/cyclin A, IC50): 6.92
pIC50 [2, 19]: 6.77
pIC50 [4, 20]: 6.42
pIC50 [5, 21]: < 5.00
Structure (SMILES): CC(C)n1cnc2c(NCc3ccc(-c4ccccn4)cc3)cc(NC[C@H](O)CO)nc21 [Ik, (2S)-3-[[3-isopropyl-7-[[4-(2-pyridyl)phenyl]methylamino]imidazo[4,5-b]pyridin-5-yl]amino]propane-1,2-diol]
pIC50 [6, 22]: 6.74

pIC50 ([2]; unit inferred, read-out: Inhibition of CDK5/p25, IC50): 6.22
pIC50 [4, 20]: 5.70
pIC50 [12, 24]: 5.35
pIC50 [5, 21]: < 5.00
Structure (SMILES): CC[C@@H](CO)Nc1cc(NCc2ccc(-c3ccccc3)cc2)c2ncn(C(C)C)c2n1 [Il, (2S)-2-[[3-isopropyl-7-[(4-phenylphenyl)methylamino]imidazo[4,5-b]pyridin-5-yl]amino]butan-1-ol]

pIC50 [2, 19]: 6.09
pIC50 [4, 20]: 5.92
Structure (SMILES): CC[C@H](CO)Nc1cc(NCc2ccc(-c3ccccc3)cc2)c2ncn(C(C)C)c2n1 [Im, (R) 2-[[3-isopropyl-7-[(4-phenylphenyl)methylamino]imidazo[4,5-b]pyridin-5-yl]amino]butan-1-ol]

Structure (SMILES): CC[C@@H](N)COc1cc(NCc2ccc(-c3ccccc3)cc2)c2ncn(C(C)C)c2n1 [In, (R)-5-(2-aminobutoxy)-3-isopropyl-N-[(4-phenylphenyl)methyl]imidazo[4,5-b]pyridine-7-amine]
pIC50 [2, 19]: 6.26
pIC50 [4, 20]: 6.92
pIC50 [12, 24]: 5.40
pIC50 [5, 21]: 5.15

Structure (SMILES): CC[C@H](N)COc1cc(NCc2ccc(-c3ccccc3)cc2)c2ncn(C(C)C)c2n1 [Ip, (S)-5-(2-aminobutoxy)-3-isopropyl-N-[(4-phenylphenyl)methyl]imidazo[4,5-b]pyridin-7-amine]
pIC50 [4, 20]: 6.66
pIC50 [12, 24]: 5.48
pIC50 [5, 21]: 5.15

pIC50 [2, 19]: 6.47 and 6.46
pIC50 [4, 20]: 6.55
Structure (SMILES): CC(C)n1cnc2c(NCc3ccc(-c4ccccn4)cc3)cc(NC(CO)CO)nc21 [Perharidine E, 3-Iso-Propyl-5-(1,3-dihydroxypropylamino)-7-[4-(2-pyridyl)-benzylamino]-imidazo[4,5-b]pyridine]
